Results as given in patent US10669283B2, “Compound and pharmacologically acceptable salt thereof” (MEIJI SEIKA PHARMA CO., LTD., priority 2016, dated 2020).

System: PDE4
Test: PDE4 inhibition, scintillation proximity assay (SPA);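 also: A below 100 nM B 100 to below 1000 nM C 1000 nM or more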
Assay type: biochemical
Settings: scintillation proximity assay (SPA); evaluated as classes A, B, C; read-out: PDE4 Inhibitory Activity (concentration for the inhibition rate of 50%)
Summary of the method: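 Compound pre-diluted 1:10 in 50 mM Tris-HCl pH 7.4, 8.3 mM MgCl2, 1.7 mM EGTA, 3 mg/mL BSA, then incubated with PDE4 and [2,8-3H]-cAMP for 120 min at room temperature. Product captured on ZnSO4-containing YSi-SPA beads for 15 min; radioactivity counted against no-enzyme blank and DMSO control.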

| SMILES | IC50 [nM] |
| --- | --- |
| CC(C)(O)c1cc(-c2nccs2)c2oc(N3CC4CC(C3)N4)nc2c1C(F)(F)F [Example 178, 2-(2-(3,6-Diazabicyclo[3.1.1]heptan-3-yl)-7-(thiazol-2-yl)-4-(trifluoromethyl)benzo[d]oxazol-5-yl)propan-2-ol] | < 100 |
| CC(=O)c1cc(-c2nccs2)c2oc(N3CC4CCC(C3)N4)nc2c1C(F)(F)F [Example 179, 1-(2-(3,8-Diazabicyclo[3.2.1]octan-3-yl)-7-(thiazol-2-yl)-4-(trifluoromethyl)benzo[d]oxazol-5-yl)ethan-1-one] | < 100 |
| CC(=O)c1cc(-c2nccs2)c2oc(N3CC4CC(C3)N4)nc2c1C(F)(F)F [Example 180, 1-(2-(3,6-Diazabicyclo[3.1.1]heptan-3-yl)-7-(thiazol-2-yl)-4-(trifluoromethyl)benzo[d]oxazol-5-yl)ethan-1-one] | < 100 |
| CC(O)c1cc(-c2nccs2)c2oc(N3CC4CCC(C3)N4)nc2c1C(F)(F)F (centres unmarked) [Example 181, 1-(2-(3,8-Diazabicyclo[3.2.1]octan-3-yl)-7-(thiazol-2-yl)-4-(trifluoromethyl)benzo[d]oxazol-5-yl)ethan-1-ol] | < 100 |
| CC(O)c1cc(-c2nccs2)c2oc(N3CC4CC(C3)N4)nc2c1C(F)(F)F (centres unmarked) [Example 182, 1-(2-(3,6-Diazabicyclo[3.1.1]heptan-3-yl)-7-(thiazol-2-yl)-4-(trifluoromethyl)benzo[d]oxazol-5-yl)ethan-1-ol] | < 100 |
| OC(c1cc(-c2nccs2)c2oc(N3CC4CCC(C3)N4)nc2c1C(F)(F)F)C(F)F (centres unmarked) [Example 183, 1-(2-(3,8-Diazabicyclo[3.2.1]octan-3-yl)-7-(thiazol-2-yl)-4-(trifluoromethyl)benzo[d]oxazol-5-yl)-2,2-difluoroethan-1-ol] | < 100 |
| COC(C)c1cc(-c2nccs2)c2oc(N3CC4CCC(C3)N4)nc2c1C(F)(F)F (centres unmarked) [Example 184, 2-(3,8-Diazabicyclo[3.2.1]octan-3-yl)-5-(1-methoxyethyl)-7-(thiazol-2-yl)-4-(trifluoromethyl)benzo[d]oxazole] | < 100 |
| COC(C)c1cc(-c2nccs2)c2oc(N3CC4CC(C3)N4)nc2c1C(F)(F)F (centres unmarked) [Example 185, 2-(3,6-Diazabicyclo[3.1.1]heptan-3-yl)-5-(1-methoxyethyl)-7-(thiazol-2-yl)-4-(trifluoromethyl)benzo[d]oxazole] | < 100 |
| CCOC(=O)c1cc(-c2nccs2)c2oc(N3CC4CCC(C3)N4)nc2c1OC(F)(F)F [Example 186, Ethyl 2-(3,8-diazabicyclo[3.2.1]octan-3-yl)-7-(thiazol-2-yl)-4-(trifluoromethoxy)benzo[d]oxazole-5-carboxylate] | < 100 |
| CCOC(=O)c1cc(-c2nccs2)c2oc(N3CC4CC(C3)N4)nc2c1OC(F)(F)F [Example 187, Ethyl 2-(3,6-diazabicyclo[3.1.1]heptan-3-yl)-7-(thiazol-2-yl)-4-(trifluoromethoxy)benzo[d]oxazole-5-carboxylate] | < 100 |
| CCOC(=O)c1cc(-c2nccs2)c2oc(N3CC4CCCC(C3)N4)nc2c1OC(F)(F)F [Example 188, Ethyl 2-(3,9-diazabicyclo[3.3.1]nonan-3-yl)-7-(thiazol-2-yl)-4-(trifluoromethoxy)benzo[d]oxazole-5-carboxylate] | < 100 |
| O=C(O)c1cc(-c2nccs2)c2oc(N3CC4CCC(C3)N4)nc2c1OC(F)(F)F [Example 189, 2-(3,8-Diazabicyclo[3.2.1]octan-3-yl)-7-(thiazol-2-yl)-4-(trifluoromethoxy)benzo[d]oxazole-5-carboxylic acid] | 100 to 1000 |
| O=C(O)c1cc(-c2nccs2)c2oc(N3CC4CC(C3)N4)nc2c1OC(F)(F)F [Example 190, 2-(3,6-Diazabicyclo[3.1.1]heptan-3-yl)-7-(thiazol-2-yl)-4-(trifluoromethoxy)benzo[d]oxazole-5-carboxylic acid] | > 1000 |
| O=C(O)c1cc(-c2nccs2)c2oc(N3CC4CCCC(C3)N4)nc2c1OC(F)(F)F [Example 191, 2-(3,9-Diazabicyclo[3.3.1]nonan-3-yl)-7-(thiazol-2-yl)-4-(trifluoromethoxy)benzo[d]oxazole-5-carboxylic acid] | 100 to 1000 |
| O=C(c1cc(-c2nccs2)c2oc(N3CC4CCC(C3)N4)nc2c1OC(F)(F)F)N1CCC1 [Example 192, (2-(3,8-Diazabicyclo[3.2.1]octan-3-yl)-7-(thiazol-2-yl)-4-(trifluoromethoxy)benzo[d]oxazol-5-yl) (azetidin-1-yl)methanone] | < 100 |
| CN(CCO)C(=O)c1cc(-c2nccs2)c2oc(N3CC4CCC(C3)N4)nc2c1OC(F)(F)F [Example 193, 2-(3,8-Diazabicyclo[3.2.1]octan-3-yl)-N-(2-hydroxyethyl)-N-methyl-7-(thiazol-2-yl)-4-(trifluoromethoxy)benzo [d]oxazole-5-carboxamide] | < 100 |

| SMILES | IC50 [nM] |
| --- | --- |
| O=C(c1cc(-c2nccs2)c2oc(N3CC4CCC(C3)N4)nc2c1OC(F)(F)F)N1CC(O)(C(F)(F)F)C1 [Example 194, (2-(3,8-Diazabicyclo[3.2.1]octan-3-yl)-7-(thiazol-2-yl)-4-(trifluoromethoxy)benzo[d]oxazol-5-yl)(3-hydroxy-3-(trifluoromethyl)azetidin-1-yl)methanone] | 100 to 1000 |
| CC(C)(O)c1cc(-c2nccs2)c2oc(N3CC4CCC(C3)N4)nc2c1OC(F)(F)F [Example 195, 2-(2-(3,8-Diazabicyclo[3.2.1]octan-3-yl)-7-(thiazol-2-yl)-4-(trifluoromethoxy)benzo[d]oxazol-5-yl)propan-2-ol] | < 100 |
| CC(C)(O)c1cc(-c2nccs2)c2oc(N3CC4CC(C3)N4)nc2c1OC(F)(F)F [Example 196, 2-(2-(3,6-Diazabicyclo[3.1.1]heptan-3-yl)-7-(thiazol-2-yl)-4-(trifluoromethoxy)benzo[d]oxazol-5-yl)propan-2-ol] | < 100 |
| CC(C)(O)c1cc(-c2nccs2)c2oc(N3CC4CCCC(C3)N4)nc2c1OC(F)(F)F [Example 197, 2-(2-(3,9-Diazabicyclo[3.3.1]nonan-3-yl)-7-(thiazol-2-yl)-4-(trifluoromethoxy)benzo[d]oxazol-5-yl)propan-2-ol] | < 100 |
| COC(C)(C)c1cc(-c2nccs2)c2oc(N3CC4CCC(C3)N4)nc2c1OC(F)(F)F [Example 198, 2-(3,8-Diazabicyclo[3.2.1]octan-3-yl)-5-(2-methoxypropan-2-yl)-7-(thiazol-2-yl)-4-(trifluoromethoxy)benzo[d]oxazole] | < 100 |
| COC(C)(C)c1cc(-c2nccs2)c2oc(N3CC4CC(C3)N4)nc2c1OC(F)(F)F [Example 199, 2-(3,6-Diazabicyclo[3.1.1]heptan-3-yl)-5-(2-methoxypropan-2-yl)-7-(thiazol-2-yl)-4-(trifluoromethoxy)benzo[d]oxazole] | < 100 |
| COC(C)(C)c1cc(-c2nccs2)c2oc(N3CC4CCCC(C3)N4)nc2c1OC(F)(F)F [Example 200, 2-(3,9-Diazabicyclo[3.3.1]nonan-3-yl)-5-(2-methoxypropan-2-yl)-7-(thiazol-2-yl)-4-(trifluoromethoxy)benzo[d]oxazole] | < 100 |
| OCc1cc(-c2nccs2)c2oc(N3CC4CCC(C3)N4)nc2c1OC(F)(F)F [Example 201, (2-(3,8-Diazabicyclo[3.2.1]octan-3-yl)-7-(thiazol-2-yl)-4-(trifluoromethoxy)benzo[d]oxazol-5-yl)methanol] | < 100 |
| CC(O)c1cc(-c2nccs2)c2oc(N3CC4CCC(C3)N4)nc2c1OC(F)(F)F (centres unmarked) [Example 202, 1-(2-(3,8-Diazabicyclo[3.2.1]octan-3-yl)-7-(thiazol-2-yl)-4-(trifluoromethoxy)benzo[d]oxazol-5-yl)ethan-1-ol] | < 100 |
| CC(O)c1cc(-c2nccs2)c2oc(N3CC4CC(C3)N4)nc2c1OC(F)(F)F (centres unmarked) [Example 203, 1-(2-(3,6-Diazabicyclo[3.1.1]heptan-3-yl)-7-(thiazol-2-yl)-4-(trifluoromethoxy)benzo[d]oxazol-5-yl)ethan-1-ol] | < 100 |
| CCC(O)c1cc(-c2nccs2)c2oc(N3CC4CCC(C3)N4)nc2c1OC(F)(F)F (centres unmarked) [Example 204, 1-(2-(3,8-Diazabicyclo[3.2.1]octan-3-yl)-7-(thiazol-2-yl)-4-(trifluoromethoxy)benzo[d]oxazol-5-yl)propan-1-ol] | < 100 |
| CC(C)C(O)c1cc(-c2nccs2)c2oc(N3CC4CCC(C3)N4)nc2c1OC(F)(F)F (centres unmarked) [Example 205, 1-(2-(3,8-Diazabicyclo[3.2.1]octan-3-yl)-7-(thiazol-2-yl)-4-(trifluoromethoxy)benzo[d]oxazol-5-yl)-2-methylpropan-1-ol] | < 100 |
| OC(c1cc(-c2nccs2)c2oc(N3CC4CCC(C3)N4)nc2c1OC(F)(F)F)C(F)F (centres unmarked) [Example 206, 1-(2-(3,8-Diazabicyclo[3.2.1]octan-3-yl)-7-(thiazol-2-yl)-4-(trifluoromethoxy)benzo[d]oxazol-5-yl)-2,2-difluoroethan-1-ol] | < 100 |
| OC(c1cc(-c2nccs2)c2oc(N3CC4CC(C3)N4)nc2c1OC(F)(F)F)C(F)F (centres unmarked) [Example 207, 1-(2-(3,6-Diazabicyclo[3.1.1]heptan-3-yl)-7-(thiazol-2-yl)-4-(trifluoromethoxy)benzo[d]oxazol-5-yl)-2,2-difluoroethan-1-ol] | < 100 |
| COC(c1cc(-c2nccs2)c2oc(N3CC4CC(C3)N4)nc2c1OC(F)(F)F)C(F)F (centres unmarked) [Example 208, 2-(3,6-Diazabicyclo[3.1.1]heptan-3-yl)-5-(2,2-difluoro-1-methoxyethyl)-7-(thiazol-2-yl)-4-(trifluoromethoxy) benzo[d]oxazole] | < 100 |
| COC(c1cc(-c2nccs2)c2oc(N3CC4CCC(C3)N4)nc2c1OC(F)(F)F)C(F)F (centres unmarked) [Example 209, 2-(3,8-Diazabicyclo[3.2.1]octan-3-yl)-5-(2,2-difluoro-1-methoxyethyl)-7-(thiazol-2-yl)-4-(trifluoromethoxy)benzo[d]oxazole] | < 100 |
